Experimental data from a melting point compilation (Tetko et al.; mined from patent text by program, amines drawn as free bases though some values may be those of a salt).

`COC(=O)Nc1nc2ccccc2n1C(=O)NC1CC(C)(C)CC(C)(N(C)C(=O)n2c(NC(=O)OC)nc3ccccc32)C1` (configuration not stated) and `COC(=O)CC1CC(CCc2c(-c3ccc(F)cc3)c(-c3ccccc3)c(C(=O)Nc3ccc(C(=O)OC)cn3)n2C(C)C)OC(C)(C)O1` (configuration not stated) cannot be ordered by melting point: 82 to 83 °C for the first, 77 to 84 °C for the second.

First: Cc1c(OCc2ccccc2)c(=O)ccn1CCO
Second: Cc1sc(C(N)=O)c2c1-c1nn(Cc3ccccc3)cc1CC2
The melting point of the first is higher: 192 to 193 °C for the first, 182 to 183 °C for the second.

Compared with `CNC(=O)[C@@H]1C[C@@H](OCC2CC2)CN1S(=O)(=O)c1ccc(Cl)c(COc2cccc3c(-n4ccnc4)cc(C)nc23)c1Cl`, `Cc1cc(-n2ccnc2)c2cccc(OCc3c(Cl)ccc(S(=O)(=O)N4CCC[C@H]4C(=O)N4CCN(Cc5ccncc5)CC4)c3Cl)c2n1` is higher in melting point: 98 °C for the first, 108 °C for the second.

First: O=C(N[C@@H](CO)c1ccccc1)c1cccc(I)c1
Second: CCCCC(=O)NC(Cc1ccccc1)C(=O)Nc1c(C(C)C)cccc1C(C)C (configuration not stated)
The melting point of the first is lower: 154 to 156 °C for the first, 237 to 238 °C for the second.

First: CCOC(=O)COc1ccc(Cn2c(-c3ccc(C(F)(F)F)cc3)c(C)c3cc(OCc4ccccc4)ccc32)cc1
Second: CNC(=NS(=O)(=O)c1ccc(C(F)(F)F)cc1)N1CC(c2ccccc2)C(c2ccc(Cl)cc2)=N1 (single isomer, unassigned; (-))
The melting point of the first is higher: 221 °C for the first, 157 to 160 °C for the second.

First: c1ccc(CC2CNCCNCCNCCNCCN2)cc1 (configuration not stated)
Second: CC(=O)NC1(CCc2ccccc2)CCOC(=O)CC1 (configuration not stated)
The melting point of the first is lower: 98 to 100 °C for the first, 165 to 167 °C for the second.

First: Nc1nc(-c2ccc(C(=O)N3CCN(S(=O)(=O)c4ccc5cc(Br)ccc5c4)CC3)cc2)c[nH]1
Second: Nc1ccc(Oc2c(N3CCCC3)cc(C(=O)O)cc2S(N)(=O)=O)cc1
The melting point of the first is higher: 274 to 275 °C for the first, 234 to 240 °C for the second.

Compared with `Cc1cc(C(N)=O)ncc1C(c1c(F)ccc(F)c1F)S(=O)(=O)CCC(Cl)(Cl)Cl` (configuration not stated), `O=c1[nH]c2cc(Cl)ccc2c(=O)n1S(=O)(=O)c1cc(Cl)ccc1Cl` is higher in melting point: 173 to 175 °C for the first, 254 to 256 °C for the second.

First: O=Cc1ccc(CCc2ccc(C=O)cc2)cc1
Second: Cn1nc2ccccc2c1C(=O)NC1CCN(CCc2ccc(F)cc2)C1 (configuration not stated)
The melting point of the first is higher: 121 to 122 °C for the first, 117 to 119 °C for the second.

First: C#CCOc1cccc(-c2nc3ncccc3[nH]2)c1OC
Second: Fc1cccc(F)c1-c1cccnc1
The melting point of the first is higher: 262 °C for the first, 194 to 196 °C for the second.

First: OC(c1ccccc1Cl)C(c1ccccc1Cl)n1ccnc1 (configuration not stated)
Second: O=C(Nc1ccccc1)O[C@@H]1CN=C(c2ccc(Cl)c(Cl)c2)O[C@H]1c1ccccc1 (racemic)
The melting point of the first is lower: 62 to 68 °C for the first, 130 °C for the second.

Going from `Cc1cc2n(C)c3ncccc3c(=O)n2n1` to `Cn1nc(-c2cnc(N)nc2-c2cccc(O)c2)ccc1=O`, the melting point rises from 242 °C to 285 °C.

First: O=C1c2ccccc2Cc2ccccc2C1Br (configuration not stated)
Second: N#CC1c2ccccc2CSc2ccccc21 (configuration not stated)
The melting point of the first is lower: 82 to 84 °C for the first, 128 to 130 °C for the second.

First: CC(=O)OCC(=O)C1=CCC2C3CCC4=CC(=O)C=CC4(C)C3C(O)CC12C (configuration not stated)
Second: CC(=O)C1=CCC2C3CCC4CC(O)CCC4(C)C3C(OC(=O)CCl)CC12C (configuration not stated)
The melting point of the first is higher: 203 to 205 °C for the first, 160 to 162 °C for the second.

First: CCC(O)CN1CCC(C)C(c2ccc(Cl)cc2)=N1 (configuration not stated)
Second: CCCCCc1c(C(C)=O)nc(C(C)C)c(CO)c1-c1ccc(F)cc1
The melting point of the first is higher: 90.5 to 91.5 °C for the first, 69 to 70 °C for the second.

Compared with `CCN1C(=O)C(C(=O)Nc2cccc(C(=O)Nc3ccc(Br)cc3)c2)c2cc(C(C)=O)ccc21` (configuration not stated), `O=C(CN1CCN(c2ccccc2)CC1)Nc1ccc2c(c1NC(=O)c1ccccc1)C(=O)c1ccccc1C2=O` is higher in melting point: 117 to 120 °C for the first, 225 to 226 °C for the second.

First: CC(=O)CC(=O)N1CCc2cc(C(O)(C(F)(F)F)C(F)(F)F)ccc21
Second: COc1ccc(CC(=O)N[C@H]2C[C@H](C(=O)O)Nc3cc(Cl)cc(Cl)c32)cc1 (relative stereo)
The melting point of the first is lower: 150 to 151 °C for the first, 245 to 247 °C for the second.

Compared with `CC(O)COc1c2ccccc2c(C=O)c2ccccc12` (configuration not stated), `O=CNC1=NN(c2ccccc2)C(c2ccccc2)C1` (configuration not stated) is higher in melting point: 84 to 86 °C for the first, 158 to 160 °C for the second.

First: COc1ccc(C=CC(=O)Nc2ccncc2)c2c1OC1(CCCC1)C2
Second: Cn1nc(N2c3ccccc3C[C@H]2C(=O)O)ccc1=O
The melting point of the first is lower: 124 to 128 °C for the first, 245 to 247 °C for the second.

Compared with `CC1(C)CCC(O)(CCN2C(=O)CSC2CCCc2ccc(C(=O)O)cc2)CC1` (configuration not stated), `CCCOC(=O)c1ccc(CCCCOCCCCCNCC(O)c2ccc(O)c(NS(C)(=O)=O)c2)cc1` (configuration not stated) is lower in melting point: 142 to 143 °C for the first, 74 to 76 °C for the second.

Compared with `COC(OCCc1nc(C(C)C)c(Sc2cc(Cl)cc(Cl)c2)n1C)(c1ccccc1)c1ccccc1`, `CC(NC(=O)Cc1cc(F)cc(F)c1)C(=O)NC1C(=O)N(CCc2ccccc2)Cc2ccccc21` (configuration not stated) is lower in melting point: 107 to 108 °C for the first, 75 to 76 °C for the second.

Compared with `O=[N+]([O-])c1ccc(Oc2ccccc2Oc2ccc([N+](=O)[O-])cc2)cc1`, `O=C(c1ccc(C2CCCCC2)cc1)N1Cc2ccccc2Nc2ccccc21` is higher in melting point: 134 to 135 °C for the first, 175 to 176 °C for the second.

First: NC(=O)C1CCc2[nH]c3ccc(Cl)cc3c2C1 (configuration not stated)
Second: CN(C)C(=O)Nc1c(C(=O)c2ccccc2)[nH]c2cc(Cl)ccc12
The melting point of the first is higher: 247 to 248 °C for the first, 222 to 223 °C for the second.

First: CCOC(=O)c1cnn(-c2c(Cl)cc(Cl)cc2Cl)c1C
Second: COc1ccc(S(=O)(=O)N(CC(N)=O)c2cc(Cl)c(Cl)cc2Cc2ccccc2Cl)cc1OC
The melting point of the first is lower: 112 to 113 °C for the first, 163 °C for the second.

First: CCCOC(=O)OC1CSC(Oc2ccc3c(C)cc(=O)oc3c2)C(OC(=O)OCCC)C1OC(=O)OCCC (configuration not stated)
Second: COc1ccc(-c2nc3cc(Cl)cc(C#CCN(OC(=O)OC(C)(C)C)C(=O)OC(C)(C)C)c3o2)cc1OC1CCCC1
The melting point of the first is lower: 134 °C for the first, 144 to 146 °C for the second.

Compared with `CCCCN1C(=O)C2CC(c3ccc(N)cc3)(C2)C1=O`, `Nc1ccc(CN2CCC(=O)C(=C3SC=CS3)C2=O)cc1` is lower in melting point: 178 to 179 °C for the first, 156 to 158 °C for the second.

Compared with `Cc1cc(C)nc(-n2ncnc2N)n1`, `CCCc1nc2c(N)nc3cc(Br)ccc3c2n1CCCONC(=O)C(C)C` is lower in melting point: 230 to 232 °C for the first, 176 to 178 °C for the second.

First: O=C(Nc1ccc(Oc2ccnc(NCC3CC3)n2)c2ccccc12)c1cc(F)cc(N2CCOCC2)c1
Second: O=C(O)CN1C(=O)C(=Cc2ccc(OCc3ccccc3)c(OCc3ccccc3)c2)SC1=S
The melting point of the first is lower: 116 to 117 °C for the first, 235 to 238 °C for the second.

Compared with `C=COC(=O)[C@H](Cc1ccccc1)NC(C)=O`, `NC(=O)C[C@H](NS(=O)(=O)c1ccc2c(c1)Sc1ccccc1O2)C(=O)O` is higher in melting point: 90 to 93 °C for the first, 165 to 175 °C for the second.

First: COc1cc(C=C2CCc3c2nc2ccc(Cl)cn2c3=O)cc(OC)c1OC
Second: CC1CN(C)c2c3c(nc4cccc(c24)O1)CCCC3 (configuration not stated)
The melting point of the first is higher: 222 to 223 °C for the first, 125 to 126 °C for the second.

Compared with `COc1c(F)c(F)c(C2=CC(=O)NC2=O)c(F)c1F`, `CCC1(CC)C(=O)c2cc(OC)c(C)c(C)c2C1=O` is lower in melting point: 91 °C for the first, 80 to 81 °C for the second.

Compared with `O=C(O)c1cc([N+](=O)[O-])cc2c1Nc1ccc(CCCc3ccc(Cl)c(Cl)c3)cc1O2`, `O=c1nc(-c2ccco2)sc2ccccc12` is higher in melting point: 90 to 93 °C for the first, 170 to 172 °C for the second.

First: CN1CC(CO)C2c3cccc4c3c(cn4S(=O)(=O)c3ccccc3)CC21 (configuration not stated)
Second: Cc1cc(CSCCNc2nc(NC(=O)Nc3ccccc3)nn2C)oc1CN(C)C
The melting point of the first is lower: 124 to 127 °C for the first, 166 to 167 °C for the second.

Compound `CN(N)C(=S)Nc1ccc(C#N)cc1` has a melting point of 178 to 179 °C.
